Source: ChEMBL document CHEMBL1201862, “PubChem BioAssay data set” (2004)
Active and inactive are the calls of the source.

How the values were obtained:
[1] = target: T1, Short transient receptor potential channel 4 (Mus musculus, UniProt Q9QUQ5); assay: TRPC4 inhibitor concentration-response, dose response, cell-based, HEK293 TRPC4/mu-opioid, DAMGO stimulus, Fluo-4 (AID 492994); assay type: functional
T1 sequence (Q9QUQ5 whole entry): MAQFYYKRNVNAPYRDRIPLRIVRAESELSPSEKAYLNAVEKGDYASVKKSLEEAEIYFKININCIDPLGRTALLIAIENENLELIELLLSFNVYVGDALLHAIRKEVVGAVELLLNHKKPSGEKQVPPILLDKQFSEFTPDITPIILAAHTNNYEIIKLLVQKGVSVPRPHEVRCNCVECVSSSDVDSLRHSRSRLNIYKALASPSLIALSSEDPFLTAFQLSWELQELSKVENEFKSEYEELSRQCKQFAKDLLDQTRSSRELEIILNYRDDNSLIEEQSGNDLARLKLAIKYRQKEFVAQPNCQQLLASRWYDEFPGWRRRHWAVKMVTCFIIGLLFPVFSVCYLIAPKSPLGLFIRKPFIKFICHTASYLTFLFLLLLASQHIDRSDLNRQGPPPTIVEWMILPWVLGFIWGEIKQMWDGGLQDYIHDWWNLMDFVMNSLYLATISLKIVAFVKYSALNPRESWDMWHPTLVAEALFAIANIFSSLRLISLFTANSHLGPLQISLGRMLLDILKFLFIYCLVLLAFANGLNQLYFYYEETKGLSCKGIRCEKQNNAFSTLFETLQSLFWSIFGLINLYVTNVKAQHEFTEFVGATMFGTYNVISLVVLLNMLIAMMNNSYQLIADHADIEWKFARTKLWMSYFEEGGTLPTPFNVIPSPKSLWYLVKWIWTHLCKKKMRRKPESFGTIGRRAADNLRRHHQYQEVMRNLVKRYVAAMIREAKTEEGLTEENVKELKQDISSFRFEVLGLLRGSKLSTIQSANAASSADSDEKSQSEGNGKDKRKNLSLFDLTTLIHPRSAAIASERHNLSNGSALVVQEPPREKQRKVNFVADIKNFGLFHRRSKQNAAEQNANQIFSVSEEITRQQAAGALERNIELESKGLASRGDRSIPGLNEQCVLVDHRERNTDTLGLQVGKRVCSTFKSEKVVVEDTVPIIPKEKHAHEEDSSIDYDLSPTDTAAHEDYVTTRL

[2] = target: T1, Short transient receptor potential channel 4; assay: SAR Analysis for the identification of selective inhibits of the transient receptor potential cation channel C4 (TRPC4): Automated Electrophysiology_2. [Related pubchem assays (depositor defined):AID2256]; assay type: functional
[3] = target: Dual specificity protein kinase CLK1 (Homo sapiens, UniProt P49759); assay: CLK1 kinase inhibitors, off-target check, dose response, selectivity assay for Dyrk1A inhibitor project, biochemical, cherry-picked samples (AID 588811)
Chain of Dual specificity protein kinase CLK1 (P49759 whole entry): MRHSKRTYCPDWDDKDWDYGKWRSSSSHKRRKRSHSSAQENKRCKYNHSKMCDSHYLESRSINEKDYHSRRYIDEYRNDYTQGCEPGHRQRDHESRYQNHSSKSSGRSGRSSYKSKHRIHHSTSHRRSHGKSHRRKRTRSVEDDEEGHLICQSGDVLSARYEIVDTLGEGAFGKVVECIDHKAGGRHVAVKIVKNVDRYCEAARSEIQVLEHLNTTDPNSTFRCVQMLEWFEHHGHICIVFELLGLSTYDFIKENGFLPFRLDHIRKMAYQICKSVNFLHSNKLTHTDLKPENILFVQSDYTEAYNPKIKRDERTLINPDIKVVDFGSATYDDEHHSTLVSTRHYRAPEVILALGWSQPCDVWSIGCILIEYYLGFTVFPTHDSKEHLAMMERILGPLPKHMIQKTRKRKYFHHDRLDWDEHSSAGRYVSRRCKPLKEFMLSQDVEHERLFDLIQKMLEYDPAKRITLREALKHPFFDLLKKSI

[4] = target: Cyclin-dependent kinase 2 (Homo sapiens, UniProt P24941); assay: CDK2 kinase inhibitors, off-target check, dose response, selectivity assay for Dyrk1A inhibitor project, biochemical, cherry-picked samples (AID 602127)
[5] = system: BJ; assay: cytotoxicity toward Ras-transformed BJeLR fibroblasts, dose response, cell-based, alamar blue fluorescence, cherrypicked samples (AID 2631); assay type: functional; details: Homo sapiens;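 note: confirmatory dose-response assay in RAS-dependent BJ fibroblasts engineered with TERT, LT and ST, with cytotoxicity read by fluorescence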
[6] = target: Paired box protein Pax-8 (Homo sapiens, UniProt Q06710); assay: inhibitors of PAX8-driven TPO luciferase reporter, dose response, RMG-I cells, cherry-pick (AID 687027); assay type: functional, cell-based;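 note: luciferase reporter driven by Pax8 target thyroperoxidase promoter measured by SteadyGlo luminescence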
Chain of Paired box protein Pax-8 (Q06710 whole entry): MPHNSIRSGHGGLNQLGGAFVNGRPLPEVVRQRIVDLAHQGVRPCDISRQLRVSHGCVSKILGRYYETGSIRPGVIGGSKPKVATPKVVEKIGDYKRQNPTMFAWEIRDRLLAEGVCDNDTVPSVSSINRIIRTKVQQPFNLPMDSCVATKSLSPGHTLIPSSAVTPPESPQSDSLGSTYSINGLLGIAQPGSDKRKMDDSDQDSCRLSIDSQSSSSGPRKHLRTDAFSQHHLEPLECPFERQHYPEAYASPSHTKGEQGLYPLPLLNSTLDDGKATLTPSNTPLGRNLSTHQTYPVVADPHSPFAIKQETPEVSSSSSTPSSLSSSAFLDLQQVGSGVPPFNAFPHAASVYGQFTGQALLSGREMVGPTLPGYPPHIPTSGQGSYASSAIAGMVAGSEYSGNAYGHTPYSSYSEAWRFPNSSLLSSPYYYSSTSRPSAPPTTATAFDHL

[7] = system: BJ; assay: cytotoxicity toward BJ-TERT-LT-ST fibroblasts, dose response, cell-based, RAS-independent, luminescence (AID 1935); assay type: functional, Homo sapiens; details: Homo sapiens, BJ;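 note: BJ fibroblasts immortalized with TERT plus LT and ST oncogenes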
[8] = target: T2, Rac GTPase-activating protein 1 (Homo sapiens, UniProt Q9H0H5); assay: MgcRacGAP GTPase-activating activity inhibitors, confirmation, biochemical, ADP Hunter fluorescence, primary and confirmatory (AID 624330); assay type: functional
T2 sequence (Q9H0H5 whole entry): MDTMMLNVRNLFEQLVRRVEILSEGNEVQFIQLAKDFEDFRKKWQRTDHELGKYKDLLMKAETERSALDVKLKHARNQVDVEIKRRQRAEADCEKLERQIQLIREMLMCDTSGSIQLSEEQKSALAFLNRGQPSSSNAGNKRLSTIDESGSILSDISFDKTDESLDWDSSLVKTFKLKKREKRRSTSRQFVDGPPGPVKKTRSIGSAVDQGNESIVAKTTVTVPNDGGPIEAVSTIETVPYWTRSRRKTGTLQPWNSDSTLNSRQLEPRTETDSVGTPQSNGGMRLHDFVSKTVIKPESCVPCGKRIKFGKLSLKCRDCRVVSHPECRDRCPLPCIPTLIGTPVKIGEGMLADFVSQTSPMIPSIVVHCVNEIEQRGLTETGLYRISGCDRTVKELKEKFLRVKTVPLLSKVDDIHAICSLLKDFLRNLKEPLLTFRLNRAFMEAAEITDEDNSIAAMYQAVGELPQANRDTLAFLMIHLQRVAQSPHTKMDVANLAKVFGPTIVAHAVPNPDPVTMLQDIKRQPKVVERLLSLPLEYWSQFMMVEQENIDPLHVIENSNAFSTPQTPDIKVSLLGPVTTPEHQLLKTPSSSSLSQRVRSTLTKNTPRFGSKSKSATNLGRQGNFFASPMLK

[9] = HeLa cell cytotoxicity, dose response, cytotoxicity control for MgcRacGAP inhibitor project (AID 624300); assay type: functional
[10] = cytotoxicity toward DRD oncogenic fibroblasts, dose response, cell-based, non-viral oncogenic, luminescence (AID 1934); assay type: functional; details: Homo sapiens
[11] = target: T3, DNA repair protein RAD52 homolog (Homo sapiens, UniProt P43351); assay type: functional, biochemical
T3 sequence (P43351 whole entry): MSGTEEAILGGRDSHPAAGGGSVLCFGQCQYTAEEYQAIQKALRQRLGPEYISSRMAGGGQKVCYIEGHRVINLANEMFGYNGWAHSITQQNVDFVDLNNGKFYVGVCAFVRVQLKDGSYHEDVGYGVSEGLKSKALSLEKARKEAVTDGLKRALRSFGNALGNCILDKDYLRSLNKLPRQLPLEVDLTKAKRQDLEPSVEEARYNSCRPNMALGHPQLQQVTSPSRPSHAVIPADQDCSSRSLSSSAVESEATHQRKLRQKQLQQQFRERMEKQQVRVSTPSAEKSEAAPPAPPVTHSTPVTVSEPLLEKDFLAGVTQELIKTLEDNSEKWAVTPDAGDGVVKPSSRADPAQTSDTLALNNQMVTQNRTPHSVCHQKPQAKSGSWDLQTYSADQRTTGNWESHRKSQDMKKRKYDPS

[12] = system: BJ; assay: cells; assay type: functional, cell-based, Homo sapiens; details: Homo sapiens, BJ
[13] = cytotoxicity in HEK-293T cells, dose response, cytotoxicity control for TCR NF-kB inhibitor project, luminescence, T-cell screen hits (AID 489026); assay type: functional, cell-based;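 note: cells exposed to compound about 14 hours before the viability readout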
[14] = non-specific cell cytotoxicity, dose response, cytotoxicity control for PAX8 inhibitor project, plate reader, dry powder samples (AID 743021); assay type: functional, cell-based
[15] = system: BJ; assay: cytotoxicity toward BJ-TERT fibroblasts, dose response, cell-based, RAS-independent, luminescence (AID 1933); assay type: functional, Homo sapiens; details: Homo sapiens, BJ
[16] = target: T1, Short transient receptor potential channel 4; assay: mouse TRPC4 channel inhibitors, dose response, cell-based, HEK293 TRPC4/mu-opioid, Fluo-4 calcium (AID 434942); assay type: functional;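 note: potency of inhibitors blocking the TRPC4 calcium response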

In the case of `CCc1ccc2nc(N3CCCCCC3)cc(C)c2c1`, the IC50 [1] was 7.37 µM (active) and the IC50 [2] was 3.3 µM (active).

For `Cc1c(-c2ccnc(NCc3cccnc3)n2)sc(=O)n1C`, the AC50 [3] was 116 nM (active) and the AC50 [4] was 15.1 µM (active).

For `Cc1cc(C)c2nc(C)cc(N/N=C/c3ccc(O)cc3)c2c1`, the EC50 [5] was 555 nM (active), the AC50 [6] was 9.08 µM (active) and the EC50 [7] was 2.78 µM (inconclusive). For the same compound, the IC50 [8] was 18.2 µM (active), the CC50 [9] was 13.3 µM (active) and the EC50 [10] was 5.11 µM (inconclusive). The AC50 [11] was 939 nM (active), the EC50 [12] was 5.87 µM (active) and the IC50 [13] was 18.1 µM (active). For the same compound, the AC50 [14] was 50.5 µM (active), the EC50 [15] was 2.56 µM (inconclusive) and the EC50 [16] was 5.96 µM (active).
